Experimental data: patent US20170121683A1, “ARYL HYDROCARBON RECEPTOR DISRUPTION AND ENHANCEMENT” (priority 2015, published 2017)

Key:
Format in all cases: cell-based, human
hESC-derived NK cells = assay: CD107a degranulation assay with K562 target cells; conditions: Day 11+28, K562 targets at 2:1 effector:target ratio, 4 hours
H9 hESCs = assay: NK cell differentiation from hESCs, flow cytometry (Example 1); conditions: 1 μM SR-1 or 10 nM TCDD in NK cell differentiation conditions, n=2
Procedure: H9 hESCs were differentiated as spin EB exposed to Stage I mesodermal induction media for 11 days and transferred to NK-cell differentiation media with either DMSO, 1 μM SR-1, or 10 nM TCDD treatment for an additional 14 and 21 days. At the indicated time points, non-adherent cells were harvested and analyzed for NK-cell immunophenotype (CD56^+CD45^+) by flow cytometry. Representative flow cytometry plots are shown from two biologically independent experiments.
H9 hESCs were differentiated into NK cells as previously described (Ni et al. Embryonic Stem Cell Immunobiol. Methods Protoc. Methods Mol. Biol. 1029, 33-41 (2013)). In brief, H9 hESCs were aggregated as spin-EBs and differentiated in Stage I mesodermal induction media for 11 days, with one-half media change with fresh cytokines on Day 6. […]
Harvested cells were incubated with PE-Cy7 CD34 (BD Biosciences, San Jose, Calif.) in conjunction with APC CD31, APC CD41a, APC CD43, or APC CD45 for 30 minutes at 4° C. in FACS buffer (DPBS containing 2% fetal bovine serum and 0.1% sodium azide). […] Cells were analyzed using an LSRII flow cytometer (BD Biosciences) and data were analyzed using FlowJo software (TreeStart, Ashland, Oreg.).

[1] = system: non-adherent hematopoietic fractions of differentiating hESC-derived cells; assay: qRT-PCR of hematopoietic transcriptional regulators
From the text: FIG. 9A. Non-adherent hematopoietic progenitor cells derived from hESCs differentiated in the presence of SR-1, TCDD, or DMSO controls were harvested at Day 6+5 and seeded at 50,000 cells/dish in a standard methylcellulose colony-forming unit assay (CFU). Colonies were counted for each treatment group following 2 weeks of culture and scored for the following morphological subsets: BFU-E: burst-forming unit-erythroid; CFU-E: colony-forming unit-erythroid; CFU-GM: colony-forming unit-granulocyte, macrophage, CFU-M: colony-forming unit-macrophage; CFU-GEMM: colony-forming unit-granulocyte, erythroid, macrophage, megakaryocyte. n=3, error bars represent SEM of the total number of colonies/50,000 cells seeded, *p<0.05 as assessed with one-way ANOVA+Tukey-Kramer multiple comparisons post-hoc test. FIG. 9B. Non-adherent hematopoietic progenitor cells derived from hESCs differentiated in the presence of SR-1, TCDD, or DMSO controls were harvested at Day 6+3, Day 6+6, and Day 6+9 time points and probed for gene expression by quantitative real-time PCR (qRT-PCR). For each gene, Ct values were normalized to GAPDH at each time point and data is presented as relative fold-change to DMSO treated controls. n=3, error bars represent SEM, *p<0.05, **p<0.01 using student's t-test.
Non-adherent cell fractions were harvested as previously described in the main text. Total RNA was harvested using the Qiashredder tissue homogenizer kit (Qiagen, Valencia, Calif.) with RNAeasy Mini Kit. RNA concentration and purity was assessed using a NanoDrop 2000 (ThermoFisher Scientific) spectrophotometer and subsequently revere transcribed with a SensiFAST cDNA Synthesis Kit (Bioline, Taunton, Mass.). qPCR was performed using the All-in-One qPCR Mix (GeneCopoeia, Rockville, Md.) and cDNA was used at 50 ng/uL per reaction for qRT-PCR using gene specific human primer pairs (Table 1). qPCR reactions were run on an StepOnePlus Real-Time PCR System thermocycler (ThermoFisher Scientific) in either technical duplicate or triplicate. Ct values were normalized to a GAPDH housekeeper for each sample. Data were then normalized relative to controls using the 2̂-(ΔΔCt) method.

SMILES	CD107a expression (percentage of CD107a+ cells) (hESC-derived NK cells)	CD56+CD45+ NK cells (H9 hESCs)	expression of GATA1, fold relative to DMSO controls ([1]; Day 6+3)	expression of GATA2, fold relative to DMSO controls ([1]; Day 6+3)	mean GATA2:GATA1 ([1]; Day 6+3, SR-1 treatment)	expression of CMYB ([1]; all time points)	expression of GATA2, fold relative to DMSO controls ([1]; Day 6+6)	expression of PU.1 ([1]; each time point (Day 6+3, 6+6, 6+9))
CC(C)n1cnc2c(NCCc3ccc(O)cc3)nc(-c3csc4ccccc34)nc21 [SR-1, StemReginin-1]	58.1±0.67%	26.4%	2.58±0.40 fold	6.85±0.74 fold	2.67	significant increase		
Clc1cc2c(cc1Cl)Oc1cc(Cl)c(Cl)cc1O2 [TCDD, 2,3,7,8-tetrachlorodibenzo-p-dioxin]	36.8±2.1%	6.7%	0.31±0.08 fold				0.37±0.13 fold	reciprocal expression
